Measured values published in paper PMC12266748, “A Xanthine Derivative With Novel Heat Shock Protein 90‐Alpha Inhibitory and Senolytic Properties” (Aging Cell, 2025).
Read-outs that look alike come from different tables or passages of the source.

Key:
IMR90 cells [1] = assay: SA-β-galactosidase colorimetric assay on senescent IMR90; format: cell-based, Homo sapiens
Protocol: Previously treated cells were fixed according to the protocols established by the supplier (Cell Signaling). The images were acquired using an optical microscope (Leica) with 5× and 10× magnification (MAG) or the phase microscopy EVOS XL Core at 10× MAG and analyzed using the ImageJ software. The mean signal intensity was then normalized for the total number of cells.
β-galactosidase colorimetric assay. For cell cultures: Previously treated cells were fixed with the fixative solution for 10 min at RT according to the protocols established by the supplier (Senescence β-Galactosidase Staining Kit, #9860S, Cell Signaling, Danvers, MA, USA) Cells were then incubated with the substrate, X-gal, in a solution at pH 6, at 37°C, overnight (16 h) (Itahana et al. 2007). The images were acquired using an optical microscope (Leica, Wetzlar, Germany) with 5 and 10X magnification or the phase microscopy EVOS XL Core at 10X magnification. The images were analyzed using the ImageJ software, quantifying the colorimetric signal emitted by each cell. The mean signal intensity was then normalized for the total number of cells.

IMR90 cells [2] = assay: Dose-response curves on proliferating and replicative senescent IMR90 (Trypan blue cell count); format: cell-based; details: for EC50: Homo sapiens, IMR-90
Excerpt: IMR90 and WI38 lung fibroblasts were purchased from ECACC‐Merck. Human bone marrow (BM)‐derived mesenchymal stromal cells (MSCs) were purchased from Lonza. Human umbilical vein endothelial cells (HUVECs) are primary cells obtained from a pool of donors purchased from Clonetics (Lonza). Murine ear fibroblasts (MearFs) were obtained from C57BL/6J mice maintained in the INRCA “Specific Pathogen Free” (SPF) animal facility. MCF7 breast cancer cells were purchased from ATCC. For dose–response curves, IMR90 and WI38 were induced to senescence through replicative passages; MSCs, HUVECs, and MearFs senescence was induced with Doxorubicin; MCF7 senescence was induced with 4‐Hydroxytamoxifen (Lee et al. [2014]). The EC50 was calculated using GraphPad Prism 10 software. All treatment specifications are reported in the extended section.
Cell culture and treatment. IMR90 cells (Homo sapiens, fetal lung, fibroblast) and WI38 cells (Homo sapiens, fetal lung, fibroblast) were purchased from ECACC-Merck (Merck, Darmstadt, Germany) and cultured in MEM medium (Euroclone, Milano, Italy) supplemented with 1% L-Glutamine (Euroclone, Milano, Italy), 1% Penicillin-Streptomycin (Euroclone, Milano, Italy), and 10% Fetal Bovine Serum (FBS, Euroclone, Milano, Italy), at 37°C, 5% CO2. IMR90 cells with a population doubling (PD) from PD15 to PD23 were used; cells were considered incrementally senescent from passage PD19 to passage PD23. WI38 cells were used from PD26 to PD53. Cells were considered incrementally senescent from passage PD49 to passage PD53. For the compounds in vitro screening, IMR90 cells with passages from PD15 to PD23 were tested at increasing concentrations of 0.5 μM, 1 μM, 10 μM, and 25 μM over 24 and 48 h to evaluate the compounds' efficacy and cytotoxicity compared to the Vehicle (DMSO ≤ 0.1%). Cells were counted manually, in triplicate, using Trypan blue reagent (Euroclone) and disposable Bürker chambers. […] K5 dose-response proliferation curves were performed with compound K5 (Molport, SIA, Riga, Latvia) in concentrations 0.1, 0.5, 1, 5, 10, 50, 100, and 200 μM for 48 h. Cells were counted using a Trypan blue reagent and EVAplus cell counter. The EC50s were calculated by analyzing the data using GraphPad Prism 10 software.
MCF7 cell line (ATCC; HTB-22, Homo sapiens, breast cancer) was purchased from ATCC; cells were grown in MEM medium (Corning, New York, USA, #15-010-CVR) supplemented with 10% FBS (Gibco, Invitrogen, Carlsbad, CA, USA, #10270106), 1% glutamine (Corning #25005-CI), 1% penicillin and streptomycin (Corning #30002-CI). Cells were incubated at 37 °C with 5% CO2. Senescent status induction: MCF7 were plated 24 h before the treatment with 4-Hydroxytamoxifen (TAM) 10 μM to induce the senescence described by (Lee et al. 2014). Control cultures were treated with equal volumes of 75% ethanol as the vehicle. The treatment with TAM lasts 96 h, after which the cells have been washed and treated with the senolytic drugs K5 10 µM for another 96 h. The treatment with the senolytic compounds has been renewed at 48 h. Cell mortality and vitality curves after treatment with K5 (10 μM, orange) or Vehicle (DMSO, grey) were monitored using the Incucyte live-cell Analysis system (Sartorius, Goettingen, Germany). The estimated Senolytic index (SI) was calculated as the ratio between the EC50 in proliferating cells and the EC50 in senescent cells, extrapolated using GraphPad Prism 10 software.

[3] = Mouse plasma exposure after oral and intravenous administration, brain and kidney distribution; format: in vivo, CD1 mouse; details: for Kp: CD1, mouse, relative to plasma; for half-life: read-out: T ½ in plasma
Protocol: APHAD S.r.l (Buccinasco, MI, Italy) performed all evaluations. Detailed protocols are reported in the extended methods section.
Determination of the mouse plasma exposure of K5 after oral […] and intravenous (IV) administration. Determination of K5 distribution in brain and kidney after IV administration. Weighed tissues were homogenized with a Precellys Evolution Homogenizer 1g/5mL of 20 mM ammonium formate buffer pH 6.5 using 3 cycles 25 sec at a speed of 7600 rpm. Plasma or tissue was added to ACN containing Verapamil as Internal standard (0.1 µM) in a […]. Samples were shaken for 10 min at 300 rpm at RT and centrifuged for 15 min at 10°C at 4700 rpm. Working solutions (WS) for the calibration curves and QC samples were prepared by diluting ACN in the range 10-20000ng/mL range. Verapamil was diluted in ACN to reach the final concentration of 0.1 µM (WS_IS). Samples were analyzed on an Acquity UPLC (Waters) coupled with an API 3200 Triple Quadrupole ABSciex. Non-compartmental analysis was applied, and the following pharmacokinetic (PK) parameters were evaluated for each subject or group of subjects: maximum plasma concentration (Cmax), plasma concentration at last timepoint (Clast), time of maximum plasma concentration (Tmax), AUC from time zero to the time of the last quantifiable plasma concentration (AUC0-last), AUC from time zero extrapolated to infinity (AUCinf), mean residence time (MRT), half-life (T½). AUCs were calculated using a linear trapezoidal rule, and a uniform weight was performed as the first general approach. Graphical concentration-time curves are produced after Log transformation (PK Solver 2.0, Excel 2007 Microsoft add-in). The ke was estimated from the terminal part of the log-concentration time plot, which included at least three data points excluding the Cmax. If the terminal phase regression based on R2 was less than 0.85, then the T½ and the AUC0-inf were not reported.

[4] = plasma, oral 30 mg/kg, CD1 mouse

## Cc1ccccc1-n1c(=O)n(Cc2ccccc2)c(=O)c2[nH]cnc21 [Compound K5, 1-benzyl-3-(2-methylphenyl)-7H-purine-2,6-dione]
IMR90 cells [1]
  reduced SA-β-gal+ cells: 20%
IMR90 cells [2]; IMR90, Replicative/passages, read-out: EC50 senescent cells
  EC50: 380 nM
IMR90 cells [2]; IMR90, read-out: EC50 proliferating cells
  EC50: > 500000 nM
IMR90 cells [2]; IMR90, Replicative/passages
  Senolytic evidence (no, partly/yes): Yes
IMR90 cells [2]; IMR90, SI = EC50 in proliferating cells/EC50 senescent cells
  Senolytic index (estimated): > 1320
IMR90 cells [2]; proliferating IMR90 (PD15), 100 nM to 200 μM, 48 h
  toxicity in proliferating cells: no evident toxicity
[3]; brain, IV 5 mg/kg, read-out: distribution in the brain
  Kp: 0.35
[3]; kidney, IV 5 mg/kg, read-out: distribution in the kidney
  Kp: 1.31
[3]; IV 5 mg/kg, CD1 mouse
  distribution volume: high
[3]; oral 30 mg/kg, CD1 mouse
  time of Cmax: 10 min
[3]; plasma, IV 5 mg/kg, CD1 mouse
  clearance: 38 mL/min/kg
  half-life: 0.217 h
[3]; plasma, oral 30 mg/kg vs IV 5 mg/kg, CD1 mouse
  bioavailability: 54%
[3]; [4]
  Cmax: 2800 ng/mL
  half-life: ~5 h
[3]; plasma, oral 30 mg/kg, CD1 mouse, read-out: mean residence time (MRT) (converted)
  MRT: ~5 h
